Assay in all cases: cAMP functional assay (HTRF) in HEK293 cells in presence of 0.1% casein
Assay type in all cases: cell-based
Background: In TR-FRET formats the signal depends on donor and acceptor labels being close together.

In test [1] the target is T1, human GLP-1 receptor (GLP-1R) (Homo sapiens, UniProt P43220).
T1 construct: expressed in transfected cells; host or cells: HEK293
The note with it: HEK293 cells expressing human GLP-1R, geometric mean, read-out: hGLP1R cAMP Rel EC50 nM (SEM, n).

Test [2] deals with T2, human glucagon receptor (GcgR) (Homo sapiens, UniProt P47871).
T2 construct: expressed in transfected cells; host or cells: HEK293
T2 sequence (P47871 26-477): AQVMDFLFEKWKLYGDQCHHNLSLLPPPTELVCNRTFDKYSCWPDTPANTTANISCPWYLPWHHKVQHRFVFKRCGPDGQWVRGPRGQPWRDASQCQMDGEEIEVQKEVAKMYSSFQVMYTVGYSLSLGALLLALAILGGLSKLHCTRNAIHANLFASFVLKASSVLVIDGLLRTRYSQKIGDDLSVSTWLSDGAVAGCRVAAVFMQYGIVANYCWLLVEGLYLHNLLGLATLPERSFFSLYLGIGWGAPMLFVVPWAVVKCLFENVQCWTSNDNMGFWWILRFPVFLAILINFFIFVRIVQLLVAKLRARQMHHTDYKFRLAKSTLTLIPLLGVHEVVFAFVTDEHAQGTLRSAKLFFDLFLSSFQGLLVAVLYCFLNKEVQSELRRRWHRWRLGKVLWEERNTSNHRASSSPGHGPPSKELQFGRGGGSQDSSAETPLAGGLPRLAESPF
The note with it: HEK293 cells expressing human GcgR, geometric mean, read-out: hGcgR cAMP Rel EC50 nM (SEM, n).

In test [3] the target is T3, human glucose-dependent insulinotropic peptide receptor (GIPR) (Homo sapiens, UniProt P48546).
T3 construct: expressed in transfected cells; host or cells: HEK293
T3 sequence (P48546 22-466): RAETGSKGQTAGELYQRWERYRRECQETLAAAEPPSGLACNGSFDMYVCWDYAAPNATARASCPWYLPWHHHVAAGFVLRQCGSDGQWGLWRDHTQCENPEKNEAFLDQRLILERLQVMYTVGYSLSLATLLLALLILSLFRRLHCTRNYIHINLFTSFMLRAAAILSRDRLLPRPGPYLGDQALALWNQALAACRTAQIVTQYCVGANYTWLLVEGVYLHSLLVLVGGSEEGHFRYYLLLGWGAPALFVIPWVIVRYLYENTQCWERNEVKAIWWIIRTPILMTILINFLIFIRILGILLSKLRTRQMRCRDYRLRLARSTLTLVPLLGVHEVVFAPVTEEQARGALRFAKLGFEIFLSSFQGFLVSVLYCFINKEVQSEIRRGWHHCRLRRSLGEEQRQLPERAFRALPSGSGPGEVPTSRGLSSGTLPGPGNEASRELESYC
The note with it: HEK293 cells expressing human GIPR, geometric mean, read-out: hGIPR cAMP Rel EC50 nM (SEM, n).

*1 amine or outer side, *2 acyl side, *3 side chain or, on linkers, in order; H or OH if unused. Where a SMILES comes first, the peptide text is derived from it. Side-chain parts run from the residue outwards. [ ]: non-standard residue; d: D form. The star is where a group is joined. C20 diacid = O=C(O)CCCCCCCCCCCCCCCCCCC(=O)*; αMePhe(2-F) = C[C@](N)(Cc1ccccc1F)C(=O)O; γGlu = O=C(O)[C@H](CCC(=O)[*:2])N[*:1]; 4Pal = N[C@@H](Cc1ccncc1)C(=O)O; αMeL = CC(C)C[C@](C)(N)C(=O)O; Orn = NCCC[C@H](N)C(=O)O; AEEA = NCCOCCOCC(=O)O; Aib = CC(C)(N)C(=O)O

T1 sequence (P43220 24-463): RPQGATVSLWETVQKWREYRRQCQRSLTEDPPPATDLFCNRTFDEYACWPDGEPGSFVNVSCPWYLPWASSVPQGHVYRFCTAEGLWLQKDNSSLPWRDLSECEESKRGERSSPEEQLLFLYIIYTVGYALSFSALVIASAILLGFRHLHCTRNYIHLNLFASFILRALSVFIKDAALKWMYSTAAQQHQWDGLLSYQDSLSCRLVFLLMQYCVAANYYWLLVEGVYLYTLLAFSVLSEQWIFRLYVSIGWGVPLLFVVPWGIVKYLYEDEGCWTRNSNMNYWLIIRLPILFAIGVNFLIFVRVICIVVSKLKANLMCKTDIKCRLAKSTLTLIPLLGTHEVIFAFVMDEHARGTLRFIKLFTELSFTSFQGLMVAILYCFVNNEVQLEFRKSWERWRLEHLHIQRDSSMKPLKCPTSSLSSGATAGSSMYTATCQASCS

For `CC[C@H](C)[C@H](NC(=O)[C@H](CO)NC(=O)[C@H](Cc1ccc(O)cc1)NC(=O)[C@H](CC(=O)O)NC(=O)[C@H](CO)NC(=O)[C@@H](NC(=O)[C@](C)(Cc1ccccc1F)NC(=O)[C@@H](NC(=O)CNC(=O)[C@H](CCC(=O)O)NC(=O)C(C)(C)NC(=O)[C@@H](N)Cc1ccc(O)cc1)[C@@H](C)O)[C@@H](C)CC)C(=O)N[C@@H](C)C(=O)N[C@@H](CC(C)C)C(=O)N[C@@H](CC(=O)O)C(=O)N[C@@H](CCCCN)C(=O)N[C@H](C(=O)N[C@@H](Cc1c[nH]cn1)C(=O)N[C@@H](CCC(N)=O)C(=O)NC(C)(C)C(=O)N[C@@H](CC(=O)O)C(=O)N[C@@H](Cc1ccccc1)C(=O)N[C@H](C(=O)N[C@@H](CCC(=O)O)C(=O)N[C@@H](Cc1ccncc1)C(=O)N[C@@H](CCCCNC(=O)COCCOCCNC(=O)COCCOCCNC(=O)CC[C@H](NC(=O)CCCCCCCCCCCCCCCCCCC(=O)O)C(=O)O)C(=O)N[C@@H](CC(C)C)C(=O)N[C@@H](CCC(=O)O)C(=O)N[C@@H](C)C(=O)NCC(=O)N1CCC[C@H]1C(=O)N[C@@H](CO)C(=O)N[C@@H](CO)C(=O)NCC(=O)N[C@@H](C)C(=O)N1CCC[C@H]1C(=O)N1CCC[C@H]1C(=O)N1CCC[C@H]1C(=O)N[C@@H](CO)C(N)=O)C(C)C)[C@@H](C)CC` [Example 113] (H-Y[Aib]EGT[αMePhe(2-F)]ISDYSIALDKIHQ[Aib]DFVE[4Pal]K([AEEA-AEEA-γGlu-C20 diacid])LEAGPSSGAPPPS-NH2), the EC50 in test [1] was above 5000 nM; in test [2] it was above 5000 nM; in test [3], 0.0142 nM.

Turning to `CC[C@H](C)[C@H](NC(=O)[C@H](CO)NC(=O)[C@H](Cc1ccc(O)cc1)NC(=O)[C@H](CC(=O)O)NC(=O)[C@H](CO)NC(=O)[C@@H](NC(=O)[C@](C)(Cc1ccccc1F)NC(=O)[C@@H](NC(=O)CNC(=O)[C@H](CCC(=O)O)NC(=O)C(C)(C)NC(=O)[C@@H](N)Cc1ccc(O)cc1)[C@@H](C)O)[C@@H](C)CC)C(=O)N[C@@H](C)C(=O)N[C@@H](CC(C)C)C(=O)N[C@@H](CC(=O)O)C(=O)N[C@@H](CCCCN)C(=O)N[C@H](C(=O)N[C@@H](Cc1c[nH]cn1)C(=O)N[C@@H](CCC(N)=O)C(=O)NC(C)(C)C(=O)N[C@@H](CC(=O)O)C(=O)N[C@@H](Cc1ccccc1)C(=O)N[C@H](C(=O)N[C@@H](CCC(=O)O)C(=O)N[C@@H](Cc1ccncc1)C(=O)N[C@@H](CCCCNC(=O)COCCOCCNC(=O)COCCOCCNC(=O)CC[C@H](NC(=O)CCCCCCCCCCCCCCCCCCC(=O)O)C(=O)O)C(=O)N[C@@H](CC(C)C)C(=O)N[C@@H](CCC(=O)O)C(=O)N[C@@H](CCC(N)=O)C(=O)NCC(=O)N1CCC[C@H]1C(=O)N[C@@H](CO)C(=O)N[C@@H](CO)C(=O)NCC(=O)N[C@@H](C)C(=O)N1CCC[C@H]1C(=O)N1CCC[C@H]1C(=O)N1CCC[C@H]1C(=O)N[C@@H](CO)C(N)=O)C(C)C)[C@@H](C)CC` [Example 114] (H-Y[Aib]EGT[αMePhe(2-F)]ISDYSIALDKIHQ[Aib]DFVE[4Pal]K([AEEA-AEEA-γGlu-C20 diacid])LEQGPSSGAPPPS-NH2), the EC50 in test [1] is above 5000 nM; in test [2], above 5000 nM; in test [3], 0.0075 nM.

Regarding `CC[C@H](C)[C@H](NC(=O)[C@H](CCCCN)NC(=O)[C@H](CC(=O)O)NC(=O)[C@H](CC(C)C)NC(=O)[C@](C)(CC(C)C)NC(=O)[C@@H](NC(=O)[C@H](CO)NC(=O)[C@H](Cc1ccc(O)cc1)NC(=O)[C@H](CC(=O)O)NC(=O)[C@H](CO)NC(=O)[C@@H](NC(=O)[C@H](Cc1ccccc1)NC(=O)[C@@H](NC(=O)CNC(=O)[C@H](CCC(=O)O)NC(=O)C(C)(C)NC(=O)[C@@H](N)Cc1ccc(O)cc1)[C@@H](C)O)[C@@H](C)CC)[C@@H](C)CC)C(=O)N[C@@H](CCCNC(=N)N)C(=O)N[C@@H](CCC(N)=O)C(=O)NC(C)(C)C(=O)N[C@@H](CC(=O)O)C(=O)N[C@@H](Cc1ccccc1)C(=O)N[C@H](C(=O)N[C@@H](CCC(=O)O)C(=O)N[C@@H](Cc1ccc(O)cc1)C(=O)N[C@@H](CCCCNC(=O)COCCOCCNC(=O)COCCOCCNC(=O)CC[C@H](NC(=O)CCCCCCCCCCCCCCCCCCC(=O)O)C(=O)O)C(=O)N[C@@H](CC(C)C)C(=O)N[C@@H](CCC(=O)O)C(=O)NCC(=O)NCC(=O)N1CCC[C@H]1C(=O)N[C@@H](CO)C(=O)N[C@@H](CO)C(=O)NCC(=O)N[C@@H](C)C(=O)N1CCC[C@H]1C(=O)N1CCC[C@H]1C(=O)N1CCC[C@H]1C(=O)N[C@@H](CO)C(N)=O)C(C)C` [Example 115] (H-Y[Aib]EGTFISDYSI[αMeL]LDKIRQ[Aib]DFVEYK([AEEA-AEEA-γGlu-C20 diacid])LEGGPSSGAPPPS-NH2), the 50% effective concentration (EC50) was above 5000 nM in test [1], above 5000 nM in test [2] and 0.0372 nM in test [3].

Consider `CC[C@H](C)[C@H](NC(=O)[C@H](CCCN)NC(=O)[C@H](CC(=O)O)NC(=O)[C@H](CC(C)C)NC(=O)[C@](C)(CC(C)C)NC(=O)[C@@H](NC(=O)[C@H](CO)NC(=O)[C@H](Cc1ccc(O)cc1)NC(=O)[C@H](CC(=O)O)NC(=O)[C@H](CO)NC(=O)[C@@H](NC(=O)[C@H](Cc1ccccc1)NC(=O)[C@@H](NC(=O)CNC(=O)[C@H](CCC(=O)O)NC(=O)C(C)(C)NC(=O)[C@@H](N)Cc1ccc(O)cc1)[C@@H](C)O)[C@@H](C)CC)[C@@H](C)CC)C(=O)N[C@@H](CCCNC(=N)N)C(=O)N[C@@H](CCC(N)=O)C(=O)NC(C)(C)C(=O)N[C@@H](CC(=O)O)C(=O)N[C@@H](Cc1ccccc1)C(=O)N[C@H](C(=O)N[C@@H](CCC(=O)O)C(=O)N[C@@H](Cc1ccc(O)cc1)C(=O)N[C@@H](CCCCNC(=O)COCCOCCNC(=O)COCCOCCNC(=O)CC[C@H](NC(=O)CCCCCCCCCCCCCCCCCCC(=O)O)C(=O)O)C(=O)N[C@@H](CC(C)C)C(=O)N[C@@H](CCC(=O)O)C(=O)NCC(=O)NCC(=O)N1CCC[C@H]1C(=O)N[C@@H](CO)C(=O)N[C@@H](CO)C(=O)NCC(=O)N[C@@H](C)C(=O)N1CCC[C@H]1C(=O)N1CCC[C@H]1C(=O)N1CCC[C@H]1C(=O)N[C@@H](CO)C(N)=O)C(C)C` [Example 116] (H-Y[Aib]EGTFISDYSI[αMeL]LD[Orn]IRQ[Aib]DFVEYK([AEEA-AEEA-γGlu-C20 diacid])LEGGPSSGAPPPS-NH2), for which the results for the concentration for a half-maximal effect (EC50) in test [1], in test [2] and in test [3] were above 5000 nM, above 5000 nM and 0.028 nM, respectively.

As for `CC[C@H](C)[C@H](NC(=O)[C@H](CCCCN)NC(=O)[C@H](CC(=O)O)NC(=O)[C@H](CC(C)C)NC(=O)[C@](C)(CC(C)C)NC(=O)[C@@H](NC(=O)[C@H](CO)NC(=O)[C@H](Cc1ccc(O)cc1)NC(=O)[C@H](CC(=O)O)NC(=O)[C@H](CO)NC(=O)[C@@H](NC(=O)[C@H](Cc1ccccc1)NC(=O)[C@@H](NC(=O)CNC(=O)[C@H](CCC(=O)O)NC(=O)C(C)(C)NC(=O)[C@@H](N)Cc1ccc(O)cc1)[C@@H](C)O)[C@@H](C)CC)[C@@H](C)CC)C(=O)N[C@@H](Cc1c[nH]cn1)C(=O)N[C@@H](CCC(N)=O)C(=O)NC(C)(C)C(=O)N[C@@H](CC(=O)O)C(=O)N[C@@H](Cc1ccccc1)C(=O)N[C@H](C(=O)N[C@@H](CCC(=O)O)C(=O)N[C@@H](Cc1ccc(O)cc1)C(=O)N[C@@H](CCCCNC(=O)COCCOCCNC(=O)COCCOCCNC(=O)CC[C@H](NC(=O)CCCCCCCCCCCCCCCCCCC(=O)O)C(=O)O)C(=O)N[C@@H](CC(C)C)C(=O)N[C@@H](CCC(=O)O)C(=O)N[C@@H](C)C(=O)NCC(=O)N1CCC[C@H]1C(=O)N[C@@H](CO)C(=O)N[C@@H](CO)C(=O)NCC(=O)N[C@@H](C)C(=O)N1CCC[C@H]1C(=O)N1CCC[C@H]1C(=O)N1CCC[C@H]1C(=O)N[C@@H](CO)C(N)=O)C(C)C` [Example 117] (H-Y[Aib]EGTFISDYSI[αMeL]LDKIHQ[Aib]DFVEYK([AEEA-AEEA-γGlu-C20 diacid])LEAGPSSGAPPPS-NH2), the EC50 in test [1] is above 5000 nM; in test [2], above 5000 nM; in test [3], 0.0617 nM.

For `CC[C@H](C)[C@H](NC(=O)[C@H](CO)NC(=O)[C@H](Cc1ccc(O)cc1)NC(=O)[C@H](CC(=O)O)NC(=O)[C@H](CO)NC(=O)[C@@H](NC(=O)[C@](C)(Cc1ccccc1F)NC(=O)[C@@H](NC(=O)CNC(=O)[C@H](CCC(=O)O)NC(=O)C(C)(C)NC(=O)[C@@H](N)Cc1ccc(O)cc1)[C@@H](C)O)[C@@H](C)CC)C(=O)N[C@@H](CC(C)C)C(=O)N[C@@H](CC(C)C)C(=O)N[C@@H](CC(=O)O)C(=O)N[C@@H](CCCCN)C(=O)N[C@H](C(=O)N[C@@H](Cc1c[nH]cn1)C(=O)N[C@@H](CCC(N)=O)C(=O)NC(C)(C)C(=O)N[C@@H](CC(=O)O)C(=O)N[C@@H](Cc1ccccc1)C(=O)N[C@H](C(=O)N[C@@H](CCC(=O)O)C(=O)N[C@@H](Cc1ccncc1)C(=O)N[C@@H](CCCCNC(=O)COCCOCCNC(=O)COCCOCCNC(=O)CC[C@H](NC(=O)CCCCCCCCCCCCCCCCCCC(=O)O)C(=O)O)C(=O)N[C@@H](CC(C)C)C(=O)N[C@@H](CCC(=O)O)C(=O)NCC(=O)NCC(=O)N1CCC[C@H]1C(=O)N[C@@H](CO)C(=O)N[C@@H](CO)C(=O)NCC(=O)N[C@@H](C)C(=O)N1CCC[C@H]1C(=O)N1CCC[C@H]1C(=O)N1CCC[C@H]1C(=O)N[C@@H](CO)C(N)=O)C(C)C)[C@@H](C)CC` [Example 119] (H-Y[Aib]EGT[αMePhe(2-F)]ISDYSILLDKIHQ[Aib]DFVE[4Pal]K([AEEA-AEEA-γGlu-C20 diacid])LEGGPSSGAPPPS-NH2), the EC50 in test [1] was above 5000 nM; in test [2] it was above 5000 nM; in test [3], 0.022 nM.

As usually defined, the EC50 is the concentration at which the effect is half-maximal.

Source of the values: US12723063B2, “GIPR-agonist compounds” (Eli Lilly and Company, priority 2019, dated 2026).
